ChEMBL document CHEMBL4649995, “Discovery of a PCAF Bromodomain Chemical Probe” (Angew Chem Int Ed Engl, 2017)

Tests used:
Conditions in all cases: Compound concentration 10.0 uM, Protein concentration 2.0 uM
[1] = molecular target: Transcription intermediary factor 1-beta (Homo sapiens) (UniProt Q13263)
[2] = molecular target: Bromodomain and WD repeat-containing protein 1 (Homo sapiens) (UniProt Q9NSI6)
[3] = molecular target: Protein polybromo-1 (Homo sapiens) (UniProt Q86U86)
[4] = molecular target: Bromodomain adjacent to zinc finger domain protein 2A (Homo sapiens) (UniProt Q9UIF9)
[5] = molecular target: SWI/SNF-related matrix-associated actin-dependent regulator of chromatin subfamily A member 4 (Homo sapiens) (UniProt P51532)
[6] = molecular target: Transcription initiation factor TFIID subunit 1 (Homo sapiens) (UniProt P21675)
[7] = molecular target: Transcription intermediary factor 1-alpha (Homo sapiens) (UniProt O15164)
[8] = molecular target: Bromodomain-containing protein 4 (Homo sapiens) (UniProt O60885)
[9] = molecular target: Histone-lysine N-methyltransferase 2A (Homo sapiens) (UniProt Q03164)
[10] = molecular target: Tyrosine-protein kinase BAZ1B (Homo sapiens) (UniProt Q9UIG0)
[11] = molecular target: Transcription initiation factor TFIID subunit 1-like (Homo sapiens) (UniProt Q8IZX4)
[12] = molecular target: Nucleosome-remodeling factor subunit BPTF (Homo sapiens) (UniProt Q12830)
[13] = molecular target: Protein polybromo-1 (Homo sapiens) (UniProt Q86U86); remark: listed apart in the source
Peregrin (Homo sapiens) [14] = molecular target: Peregrin (Homo sapiens) (UniProt P55201)
[15] = molecular target: Protein polybromo-1 (Homo sapiens) (UniProt Q86U86); remark: listed apart in the source
[16] = molecular target: Bromodomain adjacent to zinc finger domain protein 2B (Homo sapiens) (UniProt Q9UIF8)
[17] = molecular target: Transcription initiation factor TFIID subunit 1-like (Homo sapiens) (UniProt Q8IZX4); remark: listed apart in the source
[18] = molecular target: Bromodomain and WD repeat-containing protein 3 (Homo sapiens) (UniProt Q6RI45)
[19] = molecular target: Nuclear body protein SP140-like protein (Homo sapiens) (UniProt Q9H930)
[20] = molecular target: Protein polybromo-1 (Homo sapiens) (UniProt Q86U86); remark: listed apart in the source
[21] = molecular target: SWI/SNF-related matrix-associated actin-dependent regulator of chromatin subfamily A member 2 (Homo sapiens) (UniProt P51531)
[22] = molecular target: Bromodomain and PHD finger-containing protein 3 (Homo sapiens) (UniProt Q9ULD4)
[23] = molecular target: Bromodomain-containing protein 7 (Homo sapiens) (UniProt Q9NPI1)
[24] = molecular target: Bromodomain-containing protein 2 (Homo sapiens) (UniProt P25440)
[25] = molecular target: Chromatin remodeling regulator CECR2 (Homo sapiens) (UniProt Q9BXF3)
[26] = molecular target: Nuclear body protein SP140 (Homo sapiens) (UniProt Q13342)
[27] = molecular target: Bromodomain-containing protein 1 (Homo sapiens) (UniProt O95696)
[28] = molecular target: Transcription initiation factor TFIID subunit 1 (Homo sapiens) (UniProt P21675); remark: listed apart in the source
[29] = molecular target: ATPase family AAA domain-containing protein 2B (Homo sapiens) (UniProt Q9ULI0)
[30] = molecular target: Bromodomain testis-specific protein (Homo sapiens) (UniProt Q58F21)
[31] = molecular target: Histone-lysine N-methyltransferase ASH1L (Homo sapiens) (UniProt Q9NR48)
[32] = molecular target: Protein polybromo-1 (Homo sapiens) (UniProt Q86U86); remark: listed apart in the source
[33] = molecular target: Bromodomain-containing protein 4 (Homo sapiens) (UniProt O60885); remark: listed apart in the source
[34] = molecular target: Bromodomain-containing protein 2 (Homo sapiens) (UniProt P25440); remark: listed apart in the source
[35] = molecular target: Bromodomain adjacent to zinc finger domain protein 1A (Homo sapiens) (UniProt Q9NRL2)
[36] = molecular target: Bromodomain testis-specific protein (Homo sapiens) (UniProt Q58F21); remark: listed apart in the source
[37] = molecular target: CREB-binding protein (Homo sapiens) (UniProt Q92793)
[38] = molecular target: Protein polybromo-1 (Homo sapiens) (UniProt Q86U86); remark: listed apart in the source
[39] = molecular target: Bromodomain-containing protein 3 (Homo sapiens) (UniProt Q15059)
Peregrin (Homo sapiens) [40] = molecular target: Peregrin (Homo sapiens) (UniProt P55201); remark: listed apart in the source
[41] = molecular target: Transcription intermediary factor 1-alpha (Homo sapiens) (UniProt O15164); remark: listed apart in the source
[42] = molecular target: Histone acetyltransferase KAT2A (Homo sapiens) (UniProt Q92830)
[43] = molecular target: PH-interacting protein (Homo sapiens) (UniProt Q8WWQ0)
[44] = molecular target: Bromodomain-containing protein 9 (Homo sapiens) (UniProt Q9H8M2)
[45] = molecular target: ATPase family AAA domain-containing protein 2 (Homo sapiens) (UniProt Q6PL18)
[46] = molecular target: Bromodomain-containing protein 3 (Homo sapiens) (UniProt Q15059); remark: listed apart in the source
[47] = molecular target: Histone acetyltransferase p300 (Homo sapiens) (UniProt Q09472)

Sequence of Protein polybromo-1 (Homo sapiens) (Q86U86 whole entry, the tested form may be a part): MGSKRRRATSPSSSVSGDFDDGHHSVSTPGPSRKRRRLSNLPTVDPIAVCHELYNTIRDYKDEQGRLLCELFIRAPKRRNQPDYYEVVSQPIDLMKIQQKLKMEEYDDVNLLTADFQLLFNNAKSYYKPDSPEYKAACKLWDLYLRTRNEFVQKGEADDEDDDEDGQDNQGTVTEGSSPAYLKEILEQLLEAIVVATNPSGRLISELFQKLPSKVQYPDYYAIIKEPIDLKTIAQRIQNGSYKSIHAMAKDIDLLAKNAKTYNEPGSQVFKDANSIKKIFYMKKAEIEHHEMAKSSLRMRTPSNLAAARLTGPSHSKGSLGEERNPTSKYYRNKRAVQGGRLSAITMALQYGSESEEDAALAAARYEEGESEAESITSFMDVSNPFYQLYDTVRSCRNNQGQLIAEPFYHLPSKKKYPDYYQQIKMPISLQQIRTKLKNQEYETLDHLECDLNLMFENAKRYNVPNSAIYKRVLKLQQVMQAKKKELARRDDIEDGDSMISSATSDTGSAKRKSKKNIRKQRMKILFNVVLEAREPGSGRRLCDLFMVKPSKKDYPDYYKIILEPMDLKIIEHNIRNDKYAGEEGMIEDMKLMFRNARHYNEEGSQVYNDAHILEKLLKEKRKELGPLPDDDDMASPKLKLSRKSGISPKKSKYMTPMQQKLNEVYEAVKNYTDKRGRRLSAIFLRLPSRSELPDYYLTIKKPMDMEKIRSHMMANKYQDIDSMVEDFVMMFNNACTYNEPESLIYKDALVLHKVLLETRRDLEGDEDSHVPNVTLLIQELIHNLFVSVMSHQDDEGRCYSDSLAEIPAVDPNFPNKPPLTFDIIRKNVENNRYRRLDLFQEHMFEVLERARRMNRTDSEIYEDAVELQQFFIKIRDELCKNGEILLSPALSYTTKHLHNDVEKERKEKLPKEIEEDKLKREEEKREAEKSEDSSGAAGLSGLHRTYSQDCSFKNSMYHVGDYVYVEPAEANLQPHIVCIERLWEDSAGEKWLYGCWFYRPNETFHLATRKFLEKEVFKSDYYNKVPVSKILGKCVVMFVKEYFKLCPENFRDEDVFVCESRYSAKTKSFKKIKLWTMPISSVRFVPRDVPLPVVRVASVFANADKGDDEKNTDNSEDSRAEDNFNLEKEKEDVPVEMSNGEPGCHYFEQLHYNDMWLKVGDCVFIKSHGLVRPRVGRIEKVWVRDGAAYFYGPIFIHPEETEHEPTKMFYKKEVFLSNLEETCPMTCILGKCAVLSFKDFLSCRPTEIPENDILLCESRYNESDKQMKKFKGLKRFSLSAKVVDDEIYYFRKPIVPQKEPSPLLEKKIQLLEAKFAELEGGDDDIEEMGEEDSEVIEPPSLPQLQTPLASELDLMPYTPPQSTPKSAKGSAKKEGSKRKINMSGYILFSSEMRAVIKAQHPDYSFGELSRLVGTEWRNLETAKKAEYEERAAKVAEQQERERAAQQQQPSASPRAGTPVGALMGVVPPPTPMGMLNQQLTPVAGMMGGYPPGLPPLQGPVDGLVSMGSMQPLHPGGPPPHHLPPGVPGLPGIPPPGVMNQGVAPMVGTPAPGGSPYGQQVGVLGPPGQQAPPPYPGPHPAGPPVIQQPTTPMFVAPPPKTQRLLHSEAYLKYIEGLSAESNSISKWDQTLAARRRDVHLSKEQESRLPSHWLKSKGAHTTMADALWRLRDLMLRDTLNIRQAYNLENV
Sequence of Transcription initiation factor TFIID subunit 1 (Homo sapiens) (P21675 whole entry, the tested form may be a part): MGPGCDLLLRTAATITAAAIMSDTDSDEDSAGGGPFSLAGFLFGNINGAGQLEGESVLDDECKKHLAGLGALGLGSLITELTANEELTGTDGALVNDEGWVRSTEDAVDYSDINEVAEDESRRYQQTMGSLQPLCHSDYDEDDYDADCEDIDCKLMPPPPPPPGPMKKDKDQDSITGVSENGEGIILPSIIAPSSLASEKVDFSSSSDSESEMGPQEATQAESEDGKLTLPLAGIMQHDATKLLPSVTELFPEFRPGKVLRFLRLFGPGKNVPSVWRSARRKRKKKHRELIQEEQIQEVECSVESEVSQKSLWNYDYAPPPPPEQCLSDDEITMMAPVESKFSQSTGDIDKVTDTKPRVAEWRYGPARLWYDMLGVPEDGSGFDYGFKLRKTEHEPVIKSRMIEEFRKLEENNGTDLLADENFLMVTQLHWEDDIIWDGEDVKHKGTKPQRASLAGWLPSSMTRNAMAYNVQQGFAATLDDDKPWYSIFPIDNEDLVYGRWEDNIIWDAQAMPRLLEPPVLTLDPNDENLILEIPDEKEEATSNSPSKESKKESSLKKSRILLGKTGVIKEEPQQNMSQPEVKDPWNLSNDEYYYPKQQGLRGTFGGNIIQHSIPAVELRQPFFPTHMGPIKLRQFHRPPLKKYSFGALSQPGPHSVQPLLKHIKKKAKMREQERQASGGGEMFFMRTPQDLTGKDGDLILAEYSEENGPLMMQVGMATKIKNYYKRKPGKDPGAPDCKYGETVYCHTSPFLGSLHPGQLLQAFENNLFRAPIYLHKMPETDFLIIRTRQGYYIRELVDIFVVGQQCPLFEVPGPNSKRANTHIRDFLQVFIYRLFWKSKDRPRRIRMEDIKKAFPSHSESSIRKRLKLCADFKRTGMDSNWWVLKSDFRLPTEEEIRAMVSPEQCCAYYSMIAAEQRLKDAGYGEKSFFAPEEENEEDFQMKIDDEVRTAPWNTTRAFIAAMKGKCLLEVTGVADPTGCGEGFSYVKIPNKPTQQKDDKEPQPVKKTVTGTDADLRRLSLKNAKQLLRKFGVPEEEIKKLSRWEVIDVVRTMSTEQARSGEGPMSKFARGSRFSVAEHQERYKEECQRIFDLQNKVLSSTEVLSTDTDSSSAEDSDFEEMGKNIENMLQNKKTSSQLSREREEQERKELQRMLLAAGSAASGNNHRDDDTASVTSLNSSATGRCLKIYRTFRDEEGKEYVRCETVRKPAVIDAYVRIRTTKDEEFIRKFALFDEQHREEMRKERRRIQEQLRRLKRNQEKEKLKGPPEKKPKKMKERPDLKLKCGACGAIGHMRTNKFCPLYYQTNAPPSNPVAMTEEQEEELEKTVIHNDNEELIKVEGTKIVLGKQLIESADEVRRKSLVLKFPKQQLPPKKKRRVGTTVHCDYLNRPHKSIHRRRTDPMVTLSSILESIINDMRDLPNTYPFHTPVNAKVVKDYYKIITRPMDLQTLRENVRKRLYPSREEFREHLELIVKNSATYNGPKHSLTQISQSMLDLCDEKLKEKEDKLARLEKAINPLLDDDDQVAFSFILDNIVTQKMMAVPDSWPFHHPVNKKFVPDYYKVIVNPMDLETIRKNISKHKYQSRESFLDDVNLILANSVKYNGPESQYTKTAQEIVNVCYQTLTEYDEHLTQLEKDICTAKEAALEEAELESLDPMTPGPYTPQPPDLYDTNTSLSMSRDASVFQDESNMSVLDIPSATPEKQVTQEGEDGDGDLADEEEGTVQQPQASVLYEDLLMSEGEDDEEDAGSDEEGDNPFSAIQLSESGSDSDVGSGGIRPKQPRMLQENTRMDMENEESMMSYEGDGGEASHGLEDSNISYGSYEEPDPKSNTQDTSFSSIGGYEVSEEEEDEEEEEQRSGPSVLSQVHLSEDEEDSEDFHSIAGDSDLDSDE
Sequence of Bromodomain-containing protein 2 (Homo sapiens) (P25440 whole entry, looked up, the tested form may be a part): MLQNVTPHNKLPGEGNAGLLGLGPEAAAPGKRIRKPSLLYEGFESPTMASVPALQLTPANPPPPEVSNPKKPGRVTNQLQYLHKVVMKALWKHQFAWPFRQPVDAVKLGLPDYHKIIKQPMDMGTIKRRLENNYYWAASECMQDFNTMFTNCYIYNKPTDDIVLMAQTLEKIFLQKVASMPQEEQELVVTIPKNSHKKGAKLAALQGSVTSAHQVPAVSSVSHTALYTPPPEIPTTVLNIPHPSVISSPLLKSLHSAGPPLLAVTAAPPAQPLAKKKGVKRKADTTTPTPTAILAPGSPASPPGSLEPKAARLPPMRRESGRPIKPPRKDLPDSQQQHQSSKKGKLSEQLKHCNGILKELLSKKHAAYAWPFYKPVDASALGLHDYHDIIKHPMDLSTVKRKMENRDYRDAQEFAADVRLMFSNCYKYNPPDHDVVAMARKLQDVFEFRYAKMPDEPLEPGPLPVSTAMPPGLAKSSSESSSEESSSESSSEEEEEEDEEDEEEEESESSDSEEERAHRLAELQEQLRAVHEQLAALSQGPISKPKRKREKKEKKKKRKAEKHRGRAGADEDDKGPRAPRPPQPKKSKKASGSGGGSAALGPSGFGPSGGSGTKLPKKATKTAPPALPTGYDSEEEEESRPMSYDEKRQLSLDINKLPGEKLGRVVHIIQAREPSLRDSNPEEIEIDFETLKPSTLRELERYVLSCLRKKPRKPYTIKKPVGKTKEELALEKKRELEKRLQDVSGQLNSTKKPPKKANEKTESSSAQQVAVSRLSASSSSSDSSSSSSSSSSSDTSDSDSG
Sequence of Bromodomain-containing protein 3 (Homo sapiens) (Q15059 2-726 limits assumed): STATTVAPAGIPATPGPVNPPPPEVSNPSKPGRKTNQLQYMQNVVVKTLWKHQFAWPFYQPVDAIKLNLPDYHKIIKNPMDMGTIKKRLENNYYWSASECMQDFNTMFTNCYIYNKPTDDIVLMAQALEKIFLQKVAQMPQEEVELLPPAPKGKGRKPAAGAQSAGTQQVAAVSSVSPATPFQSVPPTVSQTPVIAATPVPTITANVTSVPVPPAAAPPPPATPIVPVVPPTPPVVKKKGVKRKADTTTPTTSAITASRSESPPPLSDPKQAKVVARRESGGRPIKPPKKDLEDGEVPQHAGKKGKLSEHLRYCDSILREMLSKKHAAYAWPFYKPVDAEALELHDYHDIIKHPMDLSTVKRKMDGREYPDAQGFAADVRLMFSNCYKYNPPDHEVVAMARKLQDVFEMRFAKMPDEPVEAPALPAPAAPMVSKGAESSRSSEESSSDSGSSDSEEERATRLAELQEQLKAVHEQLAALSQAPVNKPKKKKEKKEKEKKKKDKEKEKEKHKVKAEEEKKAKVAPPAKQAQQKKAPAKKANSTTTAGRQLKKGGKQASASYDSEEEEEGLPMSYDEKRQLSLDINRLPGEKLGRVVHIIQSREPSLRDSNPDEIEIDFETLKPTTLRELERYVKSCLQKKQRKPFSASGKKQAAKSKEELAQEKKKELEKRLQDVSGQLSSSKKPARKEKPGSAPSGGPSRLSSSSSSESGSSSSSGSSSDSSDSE

`Cc1nnc2c3ccccc3c(N[C@@H](C)[C@H](c3ccccc3)N(C)C)nn12` gave a ΔTm [1] of 0.5 °C, a ΔTm [2] of 2 °C and a ΔTm [3] of 0.26 °C. The ΔTm [4] was 0.1 °C, the ΔTm [5] was 0.42 °C and the ΔTm [6] was 0.42 °C. For the same molecule, the ΔTm [7] was 0.69 °C, the ΔTm [8] was 0.39 °C and the ΔTm [9] was 1.14 °C. The ΔTm [10] was 0.72 °C, the ΔTm [11] was 0.33 °C and the ΔTm [12] was 0.08 °C. It also gave a ΔTm [13] of 0.75 °C, a ΔTm (Peregrin (Homo sapiens) [14]) of 1.19 °C and a ΔTm [15] of 0.65 °C. The ΔTm [16] was 0.67 °C, the ΔTm [17] was 0.67 °C and the ΔTm [18] was 2.16 °C. For the same molecule, the ΔTm [19] was 0.94 °C, the ΔTm [20] was 0.43 °C and the ΔTm [21] was 0.51 °C. For the same molecule, the ΔTm [22] was 0.78 °C, the ΔTm [23] was -0.07 °C and the ΔTm [24] was 0.23 °C. For the same molecule, the ΔTm [25] was 0.63 °C, the ΔTm [26] was 0.09 °C and the ΔTm [27] was -0.26 °C. The ΔTm [28] was 0.5 °C, the ΔTm [29] was 0.61 °C and the ΔTm [30] was -2.19 °C. It also gave a ΔTm [31] of 0.62 °C, a ΔTm [32] of 0.1 °C and a ΔTm [33] of 0.1 °C. It also gave a ΔTm [34] of -0.06 °C, a ΔTm [35] of 1.31 °C and a ΔTm [36] of 0.72 °C. It also gave a ΔTm [37] of 0.95 °C, a ΔTm [38] of 0.13 °C and a ΔTm [39] of 0.26 °C. For the same molecule, the ΔTm (Peregrin (Homo sapiens) [40]) was 1.03 °C, the ΔTm [41] was 0.77 °C and the ΔTm [42] was 3.75 °C. It also gave a ΔTm [43] of -0.82 °C, a ΔTm [44] of 0.56 °C and a ΔTm [45] of 1.18 °C. It also gave a ΔTm [46] of 0.13 °C and a ΔTm [47] of 0.86 °C.
